Consider 17 compounds from US11297838B2, “Pesticidal compositions and methods” (CORTEVA AGRISCIENCE LLC, priority 2018, dated 2022).

Holding throughout (assay type): in vivo
The subject of series [1] is Yellow Fever Mosquito (Aedes aegypti, AEDSAE). The note with it: about 1 day-old larvae, 4000 ppm master solution diluted, 3 days, room temperature. The procedure: Insecticidal Test for Yellow Fever Mosquito (Aedes aegypti, AEDSAE) (“YFM”)
Master plates containing 400 μg of a molecule dissolved in 100 μL of dimethyl sulfoxide (DMSO) (equivalent to a 4000 ppm solution) are used. A master plate of assembled molecules contains 15 μL per well. To this plate, 135 μL of a 90:10 water/acetone mixture is added to each well. A robot (Biomek® NXP Laboratory Automation Workstation) is programmed to dispense 15 μL aspirations from the master plate into an empty 96-well shallow plate (“daughter” plate). There are 6 reps (“daughter” plates) created per master. The created “daughter” plates are then immediately infested with YFM larvae.
The day before plates are to be treated, mosquito eggs are placed in Millipore water containing liver powder to begin hatching (4 g. into 400 mL). After the “daughter” plates are created using the robot, they are infested with 220 μL of the liver powder/larval mosquito mixture (about 1 day-old larvae). After plates are infested with mosquito larvae, a non-evaporative lid is used to cover the plate to reduce drying. Plates are held at room temperature for 3 days prior to grading. After 3 days, each well is observed and scored based on mortality. In the reporting of the results, the “YFM Rating Table” was used.

The subject of series [2] is Beet Armyworm (Spodoptera exigua, LAPHEG). The series can be described thus: Insecticidal test for beet armyworm (BAW), 128-well diet tray assay. The note with it: 168 h, 50 μg/cm^2 on artificial diet, second instar larvae, five to seven days, 25° C., read-out: BAW rating, % Control (or Mortality). How it is done:
Insecticidal Test for Beet Armyworm (Spodoptera exigua, LAPHEG) (“BAW”)
Bioassays on beet armyworm (BAW; Spodoptera exigua: Lepidoptera) are conducted using a 128-well diet tray assay. One to five second instar BAW larvae are placed in each well (3 mL) of the diet tray that had been previously filled with 1 mL of artificial diet to which 50 μg/cm^2 of the test compound (dissolved in 50 μL of 90:10 acetone-water mixture) had been applied (to each of eight wells) and then allowed to dry. Trays are covered with a clear self-adhesive cover, vented to allow gas exchange, and held at 25° C., 14:10 light-dark for five to seven days. Percent mortality is recorded for the larvae in each well; activity in the eight wells is then averaged. In the reporting of the results, the “BAW & CL Rating Table” was used.

The subject of series [3] is Cabbage Looper (Trichloplusia ni, TRIPNI). Nature of the series: Insecticidal test for cabbage looper (CL), 128-well diet tray assay. The note with it: Trichoplusia ni, 168 h; 50 μg/cm^2 on artificial diet, second instar larvae, five to seven days, 25° C.; read-out: CL rating, % Control (or Mortality). How it is done:
Insecticidal Test for Cabbage Looper (Trichloplusia ni, TRIPNI) (“CL”)
Bioassays on cabbage looper (CL; Trichloplusia ni: Lepidoptera) are conducted using a 128-well diet tray assay. One to five second instar CL larvae are placed in each well (3 mL) of the diet tray that had been previously filled with 1 mL of artificial diet to which 50 μg/cm^2 of the test compound (dissolved in 50 μL of 90:10 acetone-water mixture) had been applied (to each of eight wells) and then allowed to dry. Trays are covered with a clear self-adhesive cover, vented to allow gas exchange, and held at 25° C., 14:10 light-dark for five to seven days. Percent mortality is recorded for the larvae in each well; activity in the eight wells is then averaged. In the reporting of the results, the “BAW & CL Rating Table” was used.

Structures are written as SMILES.

By mortality is commonly meant the share of the test organisms that died. On to `CC(C)c1ccccc1N1C(=O)CS/C1=N\C(=O)OCCc1ccc(-c2ncn(-c3ccc(OC(F)(F)F)cc3)n2)cc1` [A2, 4-(1-(4-(Trifluoromethoxy)phenyl)-1H-1,2,4-triazol-3-yl)phenethyl (Z)-(3-(2-isopropylphenyl)-4-oxothiazolidin-2-ylidene)carbamate], for which, in series [1], the “YFM rating, % Control (or Mortality)” value is listed as “A (80-100)”. The mortality at 50 µg/cm2 in series [2] and in series [3] was 50 to 100% in each case.

Regarding `CCOc1ccccc1N1C(=O)CS/C1=N\C(=O)OCCc1ccc(-c2ncn(-c3ccc(OC(F)(F)F)cc3)n2)cc1` [A5, 4-(1-(4-(Trifluoromethoxy)phenyl)-1H-1,2,4-triazol-3-yl)phenethyl (Z)-(3-(2-ethoxyphenyl)-4-oxothiazolidin-2-ylidene)carbamate], the “YFM rating, % Control (or Mortality)” value in series [1] is listed as “A (80-100)”. Also, the mortality at 50 µg/cm2 in series [2] fell in the range of 0 to 50%; in series [3], 50 to 100%.

Regarding `CCCCc1ccccc1N1C(=O)CS/C1=N\C(=O)OCCc1ccc(-c2ncn(-c3ccc(OC(F)(F)F)cc3)n2)cc1` [A6, 4-(1-(4-(Trifluoromethoxy)phenyl)-1H-1,2,4-triazol-3-yl)phenethyl (Z)-(3-(2-butylphenyl)-4-oxothiazolidin-2-ylidene)carbamate], in series [1], the “YFM rating, % Control (or Mortality)” value was “A (80-100)”. Further, the mortality at 50 µg/cm2 in series [2] and in series [3] was 50 to 100% throughout.

Turning to `O=C(/N=C1\SCC(=O)N1c1ccccc1CCC1CC1)OCCc1ccc(-c2ncn(-c3ccc(OC(F)(F)F)cc3)n2)cc1` [A7, 4-(1-(4-(Trifluoromethoxy)phenyl)-1H-1,2,4-triazol-3-yl)phenethyl (Z)-(3-(2-(2-cyclopropylethyl)phenyl)-4-oxothiazolidin-2-ylidene)carbamate], in series [1], the “YFM rating, % Control (or Mortality)” value is on record as “A (80-100)”. Also, the figures for the mortality at 50 µg/cm2 in series [2] and in series [3] were 0 to 50% and 50 to 100%, respectively.

With `O=C(/N=C1\SCC(=O)N1c1ccccc1CCC(F)(F)F)OCCc1ccc(-c2ncn(-c3ccc(OC(F)(F)F)cc3)n2)cc1` [A8, 4-(1-(4-(Trifluoromethoxy)phenyl)-1H-1,2,4-triazol-3-yl)phenethyl (Z)-(4-oxo-3-(2-(3,3,3-trifluoropropyl)phenyl)thiazolidin-2-ylidene)carbamate], the “YFM rating, % Control (or Mortality)” value in series [1] is “A (80-100)”. Moreover, the mortality at 50 µg/cm2 in series [2] and in series [3] was 50 to 100% each time.

`O=C(/N=C1\SCC(=O)N1c1ccccc1/C=C/C(F)(F)F)OCCc1ccc(-c2ncn(-c3ccc(OC(F)(F)F)cc3)n2)cc1` [A9, 4-(1-(4-(Trifluoromethoxy)phenyl)-1H-1,2,4-triazol-3-yl)phenethyl ((Z)-4-oxo-3-(2-((E)-3,3,3-trifluoroprop-1-en-1-yl)phenyl)thiazolidin-2-ylidene)carbamate]: in series [1], the “YFM rating, % Control (or Mortality)” value is recorded as “A (80-100)”. Moreover, the mortality at 50 µg/cm2 in series [2] and in series [3] was 50 to 100% throughout.

On to `COc1ccc(N2C(=O)CS/C2=N\C(=O)OCCc2ccc(-c3ncn(-c4ccc(OC(F)(F)F)cc4)n3)cc2)c(C)c1` [A10, 4-(1-(4-(Trifluoromethoxy)phenyl)-1H-1,2,4-triazol-3-yl)phenethyl (Z)-(3-(4-methoxy-2-methylphenyl)-4-oxothiazolidin-2-ylidene)carbamate], for which the “YFM rating, % Control (or Mortality)” value in series [1] is given as “A (80-100)”. The mortality at 50 µg/cm2 in series [2] is 0%; in series [3], 50 to 100%.

On to `Cc1ccc(C(C)C)c(N2C(=O)CS/C2=N\C(=O)OCC(Cl)c2ccc(-c3ncn(-c4ccc(OC(F)(F)F)cc4)n3)cc2)c1` (centres unmarked) [A46, 2-Chloro-2-(4-(1-(4-(trifluoromethoxy)phenyl)-1H-1,2,4-triazol-3-yl)phenyl)ethyl (Z)-(3-(2-isopropyl-5-methylphenyl)-4-oxothiazolidin-2-ylidene)carbamate], for which the mortality at 50 µg/cm2 in series [2] and in series [3] was 50 to 100% throughout.

As for `CC(C)c1ccccc1N1C(=O)CS/C1=N\C(=O)OCC(Cl)c1ccc(-c2ncn(-c3ccc(OC(F)(F)F)cc3)n2)cc1` (centres unmarked) [A47, 2-Chloro-2-(4-(1-(4-(trifluoromethoxy)phenyl)-1H-1,2,4-triazol-3-yl)phenyl)ethyl (Z)-(3-(2-isopropylphenyl)-4-oxothiazolidin-2-ylidene)carbamate], the mortality at 50 µg/cm2 in series [2] and in series [3] was 50 to 100% throughout.

Regarding `CC(C)c1ccc(Cl)cc1N1C(=O)CS/C1=N\C(=O)OCC(Cl)c1ccc(-c2ncn(-c3ccc(OC(F)(F)F)cc3)n2)cc1` (centres unmarked) [A48, 2-Chloro-2-(4-(1-(4-(trifluoromethoxy)phenyl)-1H-1,2,4-triazol-3-yl)phenyl)ethyl (Z)-(3-(5-chloro-2-isopropylphenyl)-4-oxothiazolidin-2-ylidene)carbamate], the mortality at 50 µg/cm2 in series [2] and in series [3] was 50 to 100% throughout.

Turning to `CCC(C)Oc1ccc(C)cc1N1C(=O)CS/C1=N\C(=O)OC(C)Cc1ccc(-c2ncn(-c3ccc(OC(F)(F)F)cc3)n2)cc1` (centres unmarked) [A49, 1-(4-(1-(4-(Trifluoromethoxy)phenyl)-1H-1,2,4-triazol-3-yl)phenyl)propan-2-yl (Z)-(3-(2-(sec-butoxy)-5-methylphenyl)-4-oxothiazolidin-2-ylidene)carbamate], the mortality at 50 µg/cm2 in series [2] and in series [3] was 50 to 100% throughout.

As to `CC(Cc1ccc(-c2ncn(-c3ccc(OC(F)(F)F)cc3)n2)cc1)OC(=O)/N=C1\SCC(=O)N1c1ccccc1C(C)C` (centres unmarked) [A50, 1-(4-(1-(4-(Trifluoromethoxy)phenyl)-1H-1,2,4-triazol-3-yl)phenyl)propan-2-yl (Z)-(3-(2-isopropylphenyl)-4-oxothiazolidin-2-ylidene)carbamate], the mortality at 50 µg/cm2 in series [2] and in series [3] was 50 to 100% throughout.

For `CCOc1ccccc1N1C(=O)CS/C1=N\C(=O)OC(C)Cc1ccc(-c2ncn(-c3ccc(OC(F)(F)F)cc3)n2)cc1` (centres unmarked) [A51, 1-(4-(1-(4-(Trifluoromethoxy)phenyl)-1H-1,2,4-triazol-3-yl)phenyl)propan-2-yl (Z)-(3-(2-ethoxyphenyl)-4-oxothiazolidin-2-ylidene)carbamate], the mortality at 50 µg/cm2 in series [2] and in series [3] was 50 to 100% each time.

Regarding `CCc1cccc(C)c1N1C(=O)CS/C1=N\C(=O)OC(C)Cc1ccc(-c2ncn(-c3ccc(OC(F)(F)F)cc3)n2)cc1` (centres unmarked) [A52, 1-(4-(1-(4-(Trifluoromethoxy)phenyl)-1H-1,2,4-triazol-3-yl)phenyl)propan-2-yl (Z)-(3-(2-ethyl-6-methylphenyl)-4-oxothiazolidin-2-ylidene)carbamate], the mortality at 50 µg/cm2 in series [2] and in series [3] was 50 to 100% in each case.

As to `Cc1ccc(C(C)C)c(-n2ccs/c2=N\C(=O)OCCc2ccc(-c3ncn(-c4ccc(OC(F)(F)F)cc4)n3)cc2)c1` [A53, 4-(1-(4-(Trifluoromethoxy)phenyl)-1H-1,2,4-triazol-3-yl)phenethyl (Z)-(3-(2-isopropyl-5-methylphenyl)thiazol-2(3H)-ylidene)carbamate], the mortality at 50 µg/cm2 in series [2] and in series [3] was 50 to 100% throughout.

As to `Cc1ccc(C(C)C)c(-n2ccs/c2=N\C(=O)OCC(F)c2ccc(-c3ncn(-c4ccc(OC(F)(F)F)cc4)n3)cc2)c1` (centres unmarked) [A54, 2-Fluoro-2-(4-(1-(4-(trifluoromethoxy)phenyl)-1H-1,2,4-triazol-3-yl)phenyl)ethyl (Z)-(3-(2-isopropyl-5-methylphenyl)thiazol-2(3H)-ylidene)carbamate], the mortality at 50 µg/cm2 in series [2] and in series [3] was 50 to 100% throughout.

On to `Cc1ccc(C(C)C)c(-n2ccs/c2=N\C(=O)OC(C)Cc2ccc(-c3ncn(-c4ccc(OC(F)(F)F)cc4)n3)cc2)c1` (centres unmarked) [A55, 1-(4-(1-(4-(Trifluoromethoxy)phenyl)-1H-1,2,4-triazol-3-yl)phenyl)propan-2-yl (Z)-(3-(2-isopropyl-5-methylphenyl)thiazol-2(3H)-ylidene)carbamate], for which the mortality at 50 µg/cm2 in series [2] and in series [3] was 50 to 100% in each case.
